Experimental data: patent US20020061838A1, “Peptide pharmaceutical formulations” (priority 2000, published 2002)

Tests used:
[1] = pH 7.4; cited from earlier work
[2] = Long-term stability in the preferred embodiment (HPLC and/or bioactivity)
Protocol: The vials containing 1 mL of formulated drug were put into thermostatted chambers and assayed for % peptide remaining as a function of time after storage at different temperatures. Bioactivity of the formulations at the time points was also measured.
GRF activity was assessed similarly using a cell line containing an expressed GRF receptor and monitoring the response of cell to GRF by the cAMP-responsive secreted alkaline phosphatase reporter system.

[3] = Stability of GLP-1, PTH and GRF in the preferred formulation by reversed phase HPLC (percent peptide remaining); conditions: 10 mM acetate; for Percent peptide remaining: 5.07% (w/v) D-mannitol, pH 4.7; for stability: 4, 8, and 10 mg/mL, pH 4.7, 5.07% D-mannitol
Protocol: The vials were stored at the indicated temperatures for the indicated times. Samples were removed and assayed for the loss of parent peptide by HPLC, using a reversed phase C18 (1×15 cm) analytical column. Samples (10 μl) were injected directly and resolved with a gradient of acetonitrile in water, in the presence of 0.1% trifluoroacetic acid. Percent peptide remaining at the times indicated was calculated as the area of the intact peptide divided by the total area of the intact peptide plus that of the decomposition products times 100.

[4] = Total GRF in plasma after intravenous bolus in a rat; assay type: in vivo; conditions: intravenous bolus of 20 μg, 10 mM sodium acetate, 5.07% D-mannitol, pH 4.7
Protocol: Total GRF detected in the plasma of a rat following intravenous administration of 20 μg of GRF in the preferred formulation (4 mg/mL GRF dissolved in 10 mM sodium acetate, 5.07% D-mannitol, adjusted to pH 4.7).

[5] = Tolerability and response after subcutaneous or intravenous delivery of the formulations in humans

Compound	solubility at physiological pH [1]	period over which the peptide was stable ([2]; about 0.005 to 1.0 mg/mL, 4° C., inventive formulations)	Percent peptide remaining ([3]; 4 mg/mL, 14 days, 4° C.)	Percent peptide remaining ([3]; 4 mg/mL, 14 days, 25° C.)	Percent peptide remaining ([3]; 4 mg/mL, 14 days, 50° C.)	Percent peptide remaining ([3]; 8 mg/mL, 14 days, 4° C.)	Percent peptide remaining ([3]; 8 mg/mL, 14 days, 25° C.)	Percent peptide remaining ([3]; 8 mg/mL, 14 days, 50° C.)	Percent peptide remaining ([3]; 10 mg/mL, 14 days, 4° C.)	Percent peptide remaining ([3]; 10 mg/mL, 14 days, 25° C.)	Percent peptide remaining ([3]; 10 mg/mL, 14 days, 50° C.)	stability ([3]; 25° C., 14 days)	stability ([3]; 50° C., 14 days)	stability ([3]; −20° C. to 4° C., over 14 days)	appearance of peptide in blood plasma [4]	stability (additional formulations, extended periods) ([2]; 4-6 weeks at 25° C.)	stability (additional formulations, extended periods) ([2]; 12 months at 4° C.)	stability compared with the GLP-1 formulations ([2]; formulations where the peptide is GRF or PTH, Drawings 3, 5)	complications of delivery ([5]; human subjects, intravenous and subcutaneous delivery, preferred formulations)	discomfort at the injection site ([5]; humans, subcutaneous, about 1 mL)
PTH(1-34)OH	up to 4 mg/mL	4 months	–	–	–	–	–	–	–	–	–	–	–	–	–	–	–	–	–	–
CC[C@H](C)[C@H](NC(=O)[C@H](C)NC(=O)[C@H](CC(=O)O)NC(=O)[C@H](C)NC(=O)[C@@H](N)Cc1ccc(O)cc1)C(=O)N[C@@H](Cc1ccccc1)C(=O)N[C@H](C(=O)N[C@@H](CC(N)=O)C(=O)N[C@@H](CO)C(=O)N[C@@H](Cc1ccc(O)cc1)C(=O)N[C@@H](CCCNC(=N)N)C(=O)N[C@@H](CCCCN)C(=O)N[C@H](C(=O)N[C@@H](CC(C)C)C(=O)NCC(=O)N[C@@H](CCC(N)=O)C(=O)N[C@@H](CC(C)C)C(=O)N[C@@H](CO)C(=O)N[C@@H](C)C(=O)N[C@@H](CCCNC(=N)N)C(=O)N[C@@H](CCCCN)C(=O)N[C@@H](CC(C)C)C(=O)N[C@@H](CC(C)C)C(=O)N[C@@H](CCC(N)=O)C(=O)N[C@@H](CC(=O)O)C(=O)N[C@H](C(=O)N[C@@H](CCSC)C(=O)N[C@@H](CO)C(=O)N[C@@H](CCCNC(=N)N)C(=O)N[C@@H](CCC(N)=O)C(=O)N[C@@H](CCC(N)=O)C(=O)NCC(=O)N[C@@H](CCC(=O)O)C(=O)N[C@@H](CO)C(=O)N[C@@H](CC(N)=O)C(=O)N[C@@H](CCC(N)=O)C(=O)N[C@@H](CCC(=O)O)C(=O)N[C@@H](CCCNC(=N)N)C(=O)NCC(=O)N[C@@H](C)C(=O)N[C@@H](CCCNC(=N)N)C(=O)N[C@@H](C)C(=O)N[C@@H](CCCNC(=N)N)C(=O)N[C@@H](CC(C)C)C(N)=O)[C@@H](C)CC)C(C)C)[C@@H](C)O [GRF, GRF(1-44)amide]	–	–	98%	96%	63%	98%	96%	63%	98%	96%	63%	at least 96%	63%	at least 98%	rapidly appears in the blood plasma	at least 90%	at least 90%	comparable stability	no significant complications	no apparent discomfort
